Data published in PubChem BioAssay AID270 (DTP/NCI, 2004).
Where “and” joins values, the source holds several entries; their conditions need not be identical. Equal values may be shown once. Results filed as inconclusive are left out.

Test system: BDF1 mice, s.c. Lewis lung carcinoma, T/C %
Experiment: NCI In Vivo Anticancer Drug Screen. Data for tumor model Lewis Lung Carcinoma (subcutaneous) in B6D2F1 (BDF1) mice
Summary of the method: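 First, mice carry a transplantable tumor. Next, groups receive either compound or vehicle. Finally, survival or tumor dimensions in the dosed animals are divided by the corresponding control figure.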

[1] = endpoint: mean tumor weight, dose: 37.0 mg/kg/injection, schedule: Q01DX011 (ip), vehicle: other, higher = larger tumour

SMILES: COC1C(O)CC(OC2CC(Oc3cc4cc5c(c(O)c4c(O)c3C)C(=O)[C@@H](OC3CC(OC4CC(OC6CC(C)(O)C(OC(C)=O)C(C)O6)C(O)C(C)O4)C(O)C(C)O3)[C@H]([C@H](OC)C(=O)[C@@H](O)[C@@H](C)O)C5)OC(C)C2OC(C)=O)OC1C (stereo partly specified)
- T/C (endpoint: mean tumor weight, dose: 33.0 micrograms/kg/injection, schedule: Q01DX011 (ip), vehicle: saline with Tween-80, higher = larger tumour): 93 % of control
- T/C (endpoint: mean tumor weight, dose: 65.0 micrograms/kg/injection, schedule: Q01DX011 (ip), vehicle: saline with Tween-80, higher = larger tumour): 82 % of control
- T/C (endpoint: mean tumor weight, dose: 130.0 micrograms/kg/injection, schedule: Q01DX011 (ip), vehicle: saline with Tween-80, higher = larger tumour): 66 % of control
- T/C (endpoint: median survival time, dose: 0.02 mg/kg/injection, schedule: Q01DX011 (ip), vehicle: other, higher = longer survival): 107 % of control

SMILES: Nc1ncnc2nc[nH]c12
- T/C (endpoint: mean tumor weight, dose: 12.5 mg/kg/injection, schedule: Q01DX011 (ip), vehicle: saline, higher = larger tumour): 101 % of control
- T/C (endpoint: mean tumor weight, dose: 25.0 mg/kg/injection, schedule: Q01DX011 (ip), vehicle: saline, higher = larger tumour): 104 % of control
- T/C (endpoint: mean tumor weight, dose: 50.0 mg/kg/injection, schedule: Q01DX011 (ip), vehicle: saline, higher = larger tumour): 84 % of control
- T/C (endpoint: mean tumor weight, dose: 100.0 mg/kg/injection, schedule: Q01DX011 (ip), vehicle: saline, higher = larger tumour): 43 % of control and 49 % of control

SMILES: O=C(O)CCC(=O)O
- T/C (endpoint: median survival time, dose: 0.62 mg/kg/injection, schedule: Q01DX009 (ip), vehicle: water, higher = longer survival): 110 % of control
- T/C (endpoint: median survival time, dose: 1.25 mg/kg/injection, schedule: Q01DX009 (ip), vehicle: water, higher = longer survival): 103 % of control
- T/C (endpoint: median survival time, dose: 2.5 mg/kg/injection, schedule: Q01DX009 (ip), vehicle: water, higher = longer survival): 93 % of control
- T/C (endpoint: median survival time, dose: 5.0 mg/kg/injection, schedule: Q01DX009 (ip), vehicle: water, higher = longer survival): 93 % of control and 108 % of control
- T/C (endpoint: median survival time, dose: 10.0 mg/kg/injection, schedule: Q01DX009 (ip), vehicle: water, higher = longer survival): 102 % of control and 107 % of control
- T/C (endpoint: median survival time, dose: 20.0 mg/kg/injection, schedule: Q01DX009 (ip), vehicle: water, higher = longer survival): 106 % of control and 115 % of control and 97 % of control
- T/C (endpoint: median survival time, dose: 40.0 mg/kg/injection, schedule: Q01DX009 (ip), vehicle: water, higher = longer survival): 96 % of control and 103 % of control and 108 % of control
- T/C (endpoint: median survival time, dose: 80.0 mg/kg/injection, schedule: Q01DX009 (ip), vehicle: water, higher = longer survival): 104 % of control

SMILES: CCc1ccc(NC(=O)N(CCCl)N=O)cc1
- T/C (endpoint: median survival time, dose: 1.9 mg/kg/injection, schedule: Q01DX009 (ip), vehicle: Klucel (hydroxypropylcellulose) (HPC), higher = longer survival): 108 % of control
- T/C (endpoint: median survival time, dose: 7.5 mg/kg/injection, schedule: Q01DX009 (ip), vehicle: Klucel (hydroxypropylcellulose) (HPC), higher = longer survival): 98 % of control
- T/C (endpoint: median survival time, dose: 15.0 mg/kg/injection, schedule: Q01DX009 (ip), vehicle: Klucel (hydroxypropylcellulose) (HPC), higher = longer survival): 95 % of control

SMILES: CC(C)([NH-])CO.CC(C)([NH-])CO.[Cl][Cd][Cl]
- T/C (endpoint: mean tumor weight, dose: 1.0 mg/kg/injection, schedule: Q01DX011 (ip), vehicle: other, higher = larger tumour): 122 % of control
- T/C (endpoint: mean tumor weight, dose: 2.0 mg/kg/injection, schedule: Q01DX011 (ip), vehicle: other, higher = larger tumour): 77 % of control
- T/C (endpoint: mean tumor weight, dose: 4.0 mg/kg/injection, schedule: Q01DX011 (ip), vehicle: other, higher = larger tumour): 75 % of control
- T/C (endpoint: mean tumor weight, dose: 8.0 mg/kg/injection, schedule: Q01DX011 (ip), vehicle: other, higher = larger tumour): 97 % of control

SMILES: CC1CCC2C(C)C3C(CC4C5CC=C6CC(OC7OC(CO)C(O)C(OC8OC(CO)C(O)C(O)C8O)C7OC7OC(C)C(O)C(O)C7O)CCC6(C)C5CCC43C)N2C1 (stereo unspecified)
- T/C (endpoint: mean tumor weight, dose: 54.0 mg/kg/injection, schedule: Q01DX011 (sc), vehicle: steriod suspending solution, higher = larger tumour): 112 % of control
- T/C (endpoint: mean tumor weight, dose: 80.0 mg/kg/injection, schedule: Q01DX011 (sc), vehicle: steriod suspending solution, higher = larger tumour): 69 % of control
- T/C (endpoint: mean tumor weight, dose: 120.0 mg/kg/injection, schedule: Q01DX011 (sc), vehicle: steriod suspending solution, higher = larger tumour): 76 % of control

SMILES: CC(C)(C)C(=O)O
- T/C [1]: 75 % of control
- T/C (endpoint: mean tumor weight, dose: 83.0 mg/kg/injection, schedule: Q01DX011 (ip), vehicle: other, higher = larger tumour): 159 % of control
- T/C (endpoint: mean tumor weight, dose: 125.0 mg/kg/injection, schedule: Q01DX011 (ip), vehicle: other, higher = larger tumour): 92 % of control

SMILES: OCC(Br)CBr (stereo unspecified)
- T/C [1]: 97 % of control
- T/C (endpoint: mean tumor weight, dose: 55.0 mg/kg/injection, schedule: Q01DX011 (ip), vehicle: other, higher = larger tumour): 66 % of control

SMILES: NC(Cc1c[nH]c2ccc(N(CCCl)CCCl)cc12)C(=O)O (stereo unspecified)
- T/C (endpoint: mean tumor weight, dose: 0.13 mg/kg/injection, schedule: Q01DX011 (ip), vehicle: saline, higher = larger tumour): 90 % of control
- T/C (endpoint: mean tumor weight, dose: 0.5 mg/kg/injection, schedule: Q01DX011 (ip), vehicle: saline, higher = larger tumour): 90 % of control
- T/C (endpoint: mean tumor weight, dose: 1.0 mg/kg/injection, schedule: Q01DX011 (ip), vehicle: saline, higher = larger tumour): 98 % of control
- T/C (endpoint: mean tumor weight, dose: 2.0 mg/kg/injection, schedule: Q01DX011 (ip), vehicle: saline, higher = larger tumour): 102 % of control

SMILES: COc1ccc(CN2CCCN(Cc3ccc(OC)cc3)C2c2ccc(Cl)cc2Cl)cc1
- T/C (endpoint: mean tumor weight, dose: 74.0 mg/kg/injection, schedule: Q01DX011 (ip), vehicle: other, higher = larger tumour): 119 % of control
- T/C (endpoint: mean tumor weight, dose: 166.0 mg/kg/injection, schedule: Q01DX011 (ip), vehicle: other, higher = larger tumour): 111 % of control

SMILES: C(/C=C/C=C/N1CCCCC1)=[N+]1CCCCC1
- T/C (endpoint: median survival time, dose: 0.13 mg/kg/injection, schedule: Q01DX009 (ip), vehicle: saline, higher = longer survival): 101 % of control
- T/C (endpoint: median survival time, dose: 0.25 mg/kg/injection, schedule: Q01DX009 (ip), vehicle: saline, higher = longer survival): 110 % of control
- T/C (endpoint: median survival time, dose: 0.5 mg/kg/injection, schedule: Q01DX009 (ip), vehicle: saline, higher = longer survival): 117 % of control
- T/C (endpoint: median survival time, dose: 1.0 mg/kg/injection, schedule: Q01DX009 (ip), vehicle: saline, higher = longer survival): 110 % of control
